# Assay results published in US11213701B2, “Neuroprotective quinoline sulfonamides” (priority 2018, dated 2022).
# Key:
# [1] = tested on: SUMOylation of His-RanGap (SUMO-E1 (SAE), SUMO-E2 (UBC9), GST-SUMO); experiment: HTRF assay measuring increase in SUMOylation of His-RanGap; format: biochemical; settings: His-RanGap substrate; HTRF 665/620 ratio; 70 nl of 2 mM compound in DMSO per well; 30 min at room temperature; triplicate
# Experimental: Assay measuring increase in SUMOylation of His-RanGap. We utilized an HTRF assay containing SUMO-E1 (SAE), SUMO-E2 (UBC9), GST-SUMO and His-RanGap, a known SUMO substrate, as well as the respective fluorescent antibodies. The assay was run in 1536-well plate format and the selected activators were chosen based on their ability to increase the FRET signal over a baseline level. In 1536-well white plates, 2 μl of phosphate buffered saline (assay buffer) was dispensed into columns 1 and 2, and 2 μl of Mixture 1 (37.5 nM E1 and 100 nM His-RanGap-1) in assay buffer (50 mM Tris-HCl pH 7.4, 0.3 mM DTT, 10 mM MgCl2, 0.005% Tween-20), was dispensed into columns 3-48. Using a pintool, 70 nl of 2 mM compounds in DMSO was dispensed to columns 5-48 and 70 nl of DMSO was dispensed to columns 1-4. Using the Thermo Scientific MultiDrop Combi, 2 μL of Mixture 2 (20 mM ATP, 12.5 nM E2 and 30 nM GST-SUMO in buffer) was dispensed to all wells and incubated for 30 min. at room temperature followed by 1 μl of 500 mM KF. Plates were read on a PheraStar in a HTRF mode (Ex: 337 nm; Em: 620/665 nm). The ratio of fluorescence 665 over 620 was utilized as a readout of the assay. Increase in SUMOylation was calculated by comparison to baseline level. Measurements were done in triplicate.
# BGMK cells = experiment: Rescue of BGMK cells from thapsigargin-induced cell death (CCK-8 cell viability); format: cell-based; settings: for % BGMK Cell Viability after treatment in Presence of 10 μM compound: 2 hr pretreatment, TG 24 hrs, TG alone causes ~100% cell death
# Text: Ability of compounds to rescue BGMK cells from thapsigargin-induced cell death. To assess an orthogonal cell line and further validate the ability of SUMOylation activators to rescue varied cell types, the compounds were also profiled for cytoprotection in BGMK cells. Again, we used the known ER stress-causing agent thapsigargin (TG) to model the compromised state in vitro. BGMKs were subcultured at 1.2×10^4 cells/ml. Wells treated with compound were done so for 2 hr. […] After treatment, all cells were washed and fed fresh DMEM complete media and CCK-8 development vehicle, incubated for 2 hr, and absorbance was measured to assess viability. Controls were DMSO (0% viability) and Salubrinal (47% viability).
# CSM14.1 neuronal cells = experiment: Rescue of CSM14.1 neurons from thapsigargin-induced cell death (ATPlite cell viability); format: cell-based, rat; settings: 15 μM thapsigargin for 20 h after 2 h preincubation, TG alone causes ~100% cell death
# Text: Ability of compounds to rescue CSM14.1 neurons from thapsigargin-induced cell death. To assess the ability of the compounds to rescue neurons from ER stress-induced cell death, the rat striatal neuroprogenitor cell line CSM14.1 was used. Endoplasmic reticulum (ER) stress has been established as the major cause of neuronal loss in stroke, ischemia, and neurodegeneration (Tajiri, S.; Oyadomari, S.; Yano, S.; Morioka, M.; Gotoh, T.; Hamada, J. I.; Ushio, Y.; Mori, M. Cell Death Differ. 2004, 11, 403-415; Kohno, K.; Higuchi, T.; Ohta, S.; Kumon, Y.; Sakaki, S. Neurosci. Lett. 1997, 224, 17-20; Iadecola, C.; Zhang, F.; Casey, R.; Nagayama, M.; Ross, M. E. J. Neurosci. 1997, 17, 9157-9164). Thus, we used the known ER stress-causing agent thapsigargin (TG) to model the compromised state in vitro. TG causes 100% cell death in most cases, and compounds were assessed for neuroprotection by measuring cell viability when dosed at 10 μM. CSM14.1 cells were recovered from cultures by trypsinization and plated in 96-well plates and incubated overnight at 32° C. 5 μl of test compound was added to achieve a final concentration of […]. Salubrinal and DMSO without compound were used as positive and negative controls, respectively. After 2 h of preincubation, TG-containing DMEM was added to give a final concentration of 15 μM and incubated for an additional 20 h. Cell viability was assessed by a cellular ATP content assay (ATPlite, PerkinElmer Life Sciences).
Structure (SMILES),% INCREASE IN SUMOylation over endogenous baseline level [1],% BGMK Cell Viability after treatment in Presence of 10 μM compound (BGMK cells),% CSM14.1 Cell Viability after treatment with 15 μM TG in Presence of 10 μM compound (CSM14.1 neuronal cells),"BGMK cell viability (control) (BGMK cells; positive control after thapsigargin injury, DMSO = 0% viability, control concentration not given)"
"COc1cc(NS(=O)(=O)c2ccc3ccccc3c2)c2ncccc2c1 [Compound A9, N-(6-Methoxy-8-quinolinyl)-2-naphthalenesulfonamide]",B (B = 21%-30% increase),,,
"Cc1cc(C)n(-c2ccc3cccc(NS(C)(=O)=O)c3n2)n1 [Compound A7, N-[2-(3,5-Dimethyl-1H-pyrazol-1-yl)-8-quinolinyl]methanesulfonamide]",B (B = 21%-30% increase),,,
"CC(=O)Nc1ccc(S(=O)(=O)Nc2cccc3cccnc23)cc1 [Compound A1, N-(4-(N-(Quinolin-8-yl)sulfamoyl)phenyl)acetamide]",B (B = 21%-30% increase),C (C = 51%-60% viability),B (B = 51%-60% viability),
"Cc1ccc(S(=O)(=O)Nc2cccc3cccnc23)cc1 [Compound A6, 4-Methyl-N-(quinolin-8-yl)benzenesulfonamide]",B (B = 21%-30% increase),C (C = 51%-60% viability),C (C = 61%-70% viability of CSM14.1 neurons),
"CS(=O)(=O)Nc1cccc2cccnc12 [Compound A8, N-(8-Quinolinyl)methanesulfonamide]",B (B = 21%-30% increase),,,
"O=[N+]([O-])c1ccccc1S(=O)(=O)Nc1cccc2cccnc12 [Compound A5, 2-Nitro-N-(8-quinolinyl)benzenesulfonamide]",C (C = 31%-40% increase),,,
"O=S(=O)(Nc1cccc2cccnc12)c1ccccc1 [Compound A3, N-(Quinolin-8-yl)benzenesulfonamide]",B (B = 21%-30% increase),A (A = 30%-40% viability),A (A = 40%-50% viability),
"COc1cc(NS(=O)(=O)c2ccc(C)cc2)c2ncccc2c1 [Compound A10, N-(6-Methoxy-8-quinolinyl)-4-methylbenzenesulfonamide]",C (C = 31%-40% increase),,,
"O=C(/C=C/c1ccccc1)NC(NC(=S)Nc1cccc2cccnc12)C(Cl)(Cl)Cl (stereo not shown) [Salubrinal, reference compound]",,,,47%
"O=S(=O)(Nc1cccc2cccnc12)c1ccc(S(=O)(=O)N2CCCC2)cc1 [Compound A2, 4-(Pyrrolidin-1-ylsulfonyl)-N-(quinolin-8-yl)benzenesulfonamide]",D (D = 40%-50% increase in SUMOylation over baseline levels),D (D = 61%-70% viability of BGMK cells),C (C = 61%-70% viability of CSM14.1 neurons),
"COc1ccc(NS(=O)(=O)c2ccc3ccccc3c2)c2ncccc12 [Compound A4, N-(5-Methoxy-8-quinolinyl)-2-naphthalenesulfonamide]",C (C = 31%-40% increase),,,
